From patent US3959077A (priority 1972, dated 1976)
Read-outs that look alike come from different tables or passages of the source.

Legend:
antibody = conditions: cited from earlier work
[1] = cited from earlier work
[2] = serum cardiac glycoside levels in patients, measured with the present assay; type: in vivo, human; conditions: 21 patients with arrhythmias on digoxin therapy; serum drawn at least 6 hours after last dose
Protocol: Digoxin is extracted from patient serum or from plasma as follows: 5ml of serum or plasma is shaken for 30 seconds with 30ml of Chloroform in a 40ml glass-stoppered conical centrifuge tube, and centrifuged for 2 minutes at 1800 rpm (750 × g at tip). The milky top layer and fatty plug are removed with a teflon-tipped aspirator. The bottom chloroform layer is decanted into another 40ml centrifuge tube and evaporated to dryness in 3 to 5 minutes on a Buchler Evapomixer at 60°C. under vacuum. The digoxin thus extracted is rinsed down to the bottom of the tube with 1ml of ethyl ether and evaporated to dryness in a 50°C. water bath under a stream of filtered air.
. The sample is mixed on a Vari-whirl vortex mixer for 20 seconds at full speed and centrifuged for 3 minutes at 1800 rpm. The top toluene layer is removed with a narrow, drawn-out pasteur pipet, and discarded. Duplicate 50μl tris aliquots of the bottom tris layer are then assayed in the same manner as for the standards described in Example 3. No quench correction is required. Only raw 1 or 2 minute counts need be used and the counts of duplicate aliquots are averaged. The amount of digoxin found in each aliquot is obtained by comparison with that day's standard curve.
Serum digoxin levels were measured in 83 nontoxic patients on the medical wards of the Los Angeles County-University of Southern California Medical Center. […]

[3] = tested on: binding enzyme exhibiting Na-K-ATPase activity; test: enzymatic isotope displacement assay: displacement of H^3 ouabain from the binding enzyme; set-up: species or system guinea pig; conditions: 0, 2.5, 5, 10, 20 Ng (or ug of digitalis leaf) per 50 μl; FIG. 4
Protocol: The serum extract and aqueous buffered mixtures having known concentrations of cardiac glycosides (hereinafter referred to as standard samples) are incubated with aqueous buffered mixtures containing the novel binding enzyme of the present invention in the presence of radioactive isotope cardiac glycoside, magnesium and sodium ions, ATP a buffering agent and optionally, but preferably, a heavy metal chelating agent. It is preferably that potassium be eliminated from the reagents to optimize the sensitivity of the assay. Ten microliters of the extract are sufficient for the incubation, although smaller and larger amounts may be employed. The binding enzyme is prepared by reacting a binding enzyme precursor or binding material (described below) with a high energy phosphate compound such as adenosine triphosphate (ATP), adenosine diphosphate (ADP), guanosine triphosphate (GTP), guanosine diphosphate (GDP) and the like. The reaction is preferably conducted in the presence of magnesium and/or sodium, preferably both. The reaction is conveniently carried out in the incubation or displacement step reaction mixture. About 4 to 100 micromoles of the high energy phosphate compound are reacted with each amount of the binding enzyme precursor prepared from one gram of animal tissue; although lesser or greater amounts of a high energy phosphate compound may be used. […]
In the above assay, the binding enzyme binds tritiated ouabain in the presence of Na and Mg. […] After centrifugation, the unbound H^3 ouabain in the supernatant fraction is counted by liquid scintillation and compared with known counts for standard concentrations of digoxin. An increase in supernatant radioactivity indicates uptake of digoxin or other cardiac glycoside at the expense of tritiated ouabain. […]
A solution of 250,000 Ng (nanograms) of digoxin per ml of methanol is gravimetrically prepared. […] 50ul of each supernatant is then counted by liquid scintillation. […]

[4] = cited from earlier work; remark: listed apart in the source
clinical = type: in vivo, human
Protocol: A person was admitted to this center 3 hours after having ingested 100 tablets of 0.1mg of digitoxin. They had vomited once. Physical examination was unrevealing. […] The P-R interval was 0.24 seconds. Serum was obtained for assay, urine collection was begun, and vigorous gastric lavage was instituted.
Apparent serum digitoxin on admission was 51.0 Ng/ml, a value close to that of another patient whose atrial fibrillation was under satisfactory control on digitoxin 0.1mg/day. […] The results from both the serum and gastric material were in the hands of ward personnel within 3 hours.
On the basis of this assay information, especially the findings from the gastric material, it was decided by those caring for the patient that they might just have passed the stage where serum levels were highest. Since they were not severe, and since only mild AV block was present, it was felt that they might do well subsequently without further intervention. They were carefully watched, and in fact recovered without further therapy. […]. Four control urine specimens and six specimens at gastric contents from persons not receiving any digitalis gave negative results.

SMILES	specificity of the immunoassay for digoxin over digitoxin (antibody)	average toxic level by immunoassay (antibody; toxic patients, serum digoxin)	Risk of Arrhythmias ([1]; 1.4 nanograms per ml of blood serum)	Risk of Arrhythmias ([1]; 2 nanograms per ml of blood serum)	Risk of Arrhythmias ([1]; 2.9 nanograms per ml of blood serum)	Risk of Arrhythmias ([1]; 4 nanograms per ml of blood serum)	Risk of Arrhythmias ([1]; 5 nanograms per ml of blood serum)	average serum level (1 S.D.) [2]	displaced H^3 ouabain from the enzyme (potency) [3]	reported therapeutic serum levels relative to those of digoxin [4]	cardiac glycosides in gastric lavage material, equivalent of digitoxin (clinical; aliquot of 4 liters of lavage material)	concentration at 3 h (clinical; human, in vivo, po, 3 hours after ingestion of 100 tablets of 0.1 mg, read-out: apparent serum digitoxin on admission)	concentration at 24 h (clinical; human, in vivo, po, first subsequent day, read-out: subsequent daily serum digitoxin level)	concentration at 48 h (clinical; human, in vivo, po, second subsequent day, read-out: subsequent daily serum digitoxin level)	concentration at 24 h (clinical; human, in vivo, po, spot urine, first of the two days after admission, read-out: apparent digitoxin concentration in urine)	concentration at 48 h (clinical; human, in vivo, po, spot urine, second of the two days after admission, read-out: apparent digitoxin concentration in urine)	concentration at 72 h (clinical; human, in vivo, po, third subsequent day, read-out: subsequent daily serum digitoxin level)	amount removed by lavage (clinical; of the 10 mg ingested)
C[C@H]1O[C@@H](O[C@H]2[C@@H](O)C[C@H](O[C@H]3[C@@H](O)C[C@H](O[C@H]4CC[C@@]5(C)[C@H](CC[C@@H]6[C@@H]5C[C@@H](O)[C@]5(C)[C@@H](C7=CC(=O)OC7)CC[C@]65O)C4)O[C@@H]3C)O[C@@H]2C)C[C@H](O)[C@@H]1O [digoxin]	10 fold	3.3 ± 1.5 ng/mL	about 10%	about 25%	about 50%	about 66%	about 80%	3.10 ± 0.76 ng/mL	approximately equal potency	–	–	–	–	–	–	–	–	–
C[C@H]1O[C@@H](O[C@H]2[C@@H](O)C[C@H](O[C@H]3[C@@H](O)C[C@H](O[C@H]4CC[C@@]5(C)[C@H](CC[C@@H]6[C@@H]5CC[C@]5(C)[C@@H](C7=CC(=O)OC7)CC[C@]65O)C4)O[C@@H]3C)O[C@@H]2C)C[C@H](O)[C@@H]1O [digitoxin]	–	–	–	–	–	–	–	–	approximately equal potency	10 to 20 times	1.2 µg/mL	51 ng/mL	41 ng/mL	31.6 ng/mL	848 ng/mL	512 ng/mL	24.4 ng/mL	4.8 mg
C[C@@H]1O[C@@H](O[C@H]2C[C@@H](O)[C@]3(CO)[C@H]4[C@H](O)C[C@]5(C)[C@@H](C6=CC(=O)OC6)CC[C@]5(O)[C@@H]4CC[C@]3(O)C2)[C@H](O)[C@H](O)[C@H]1O [ouabain]	–	–	–	–	–	–	–	–	approximately equal potency	–	–	–	–	–	–	–	–	–
